Reference: PMC11395397, “Isolation and Characterization of Novel Pueroside B Isomers and Other Bioactive Compounds from Pueraria lobata Roots: Structure Elucidation, α-Glucosidase, and α-Amylase Inhibition Studies” (International Journal of Molecular Sciences, 2024)
Where two headings read alike, the source gives them in different places.

Experiments:
[1] = molecular target: T1, α-amylase (from porcine pancreas) (Sus scrofa, UniProt P00690); assay: α-amylase inhibition assay (DNS colorimetric, 540 nm); type: biochemical; conditions: for IC50: means ± SD, n = 3, porcine pancreas enzyme, DNS method, 37 °C; for α-amylase inhibitory activity (in words): tested up to 100.00 μM
T1 construct: purchased Shanghai Yuanye Bio-Technology Co., Ltd. (Shanghai, China); host or cells: porcine pancreas
T1 sequence (P00690 16-511): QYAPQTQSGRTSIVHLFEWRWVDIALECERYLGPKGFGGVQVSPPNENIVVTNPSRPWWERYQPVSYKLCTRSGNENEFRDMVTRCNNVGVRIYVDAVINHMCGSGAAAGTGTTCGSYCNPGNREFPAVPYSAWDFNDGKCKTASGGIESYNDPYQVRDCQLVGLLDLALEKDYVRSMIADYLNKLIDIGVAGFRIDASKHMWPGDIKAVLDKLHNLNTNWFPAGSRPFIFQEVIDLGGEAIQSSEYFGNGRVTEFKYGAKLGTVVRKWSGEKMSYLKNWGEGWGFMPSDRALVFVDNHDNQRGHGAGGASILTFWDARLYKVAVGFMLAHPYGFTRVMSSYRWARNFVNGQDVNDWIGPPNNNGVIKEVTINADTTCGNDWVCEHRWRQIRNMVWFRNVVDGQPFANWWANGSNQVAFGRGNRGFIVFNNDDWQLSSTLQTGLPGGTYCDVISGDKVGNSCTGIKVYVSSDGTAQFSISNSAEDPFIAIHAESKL
Experimental: (§1) ESI-HR-MS was recorded on an Orbitrap Exploris 120 quadrupole electrostatic field orbital well high-resolution mass spectrometer for UPLC-Q-Orbitrap HRMS (Waltham, MA, USA) equipped with a Hypersil GOLD C18 column (2.1 × 100 mm, 1.9 μm, ThermoFisher, Waltham, MA, USA). Optical rotations were measured on an MCP 500 polarimeter (Anton Paar, Graz, Austria). CD spectra were obtained using a Chirascan circular dichroism spectrometer (Applied PhotoPhysics, Leatherhead, Surrey, UK). UV spectra were measured with a UV-3600 Plus spectrophotometer (Shimadzu, Kyoto, Japan), and IR spectra were obtained using an IR Affinity-1S spectrophotometer (Shimadzu, Kyoto, Japan). Preparative and semipreparative HPLC were performed on a Shimadzu LC-16 system using a reverse-phase C18 column (20 × 250 mm, 5 μm, Shimadzu, Kyoto, Japan). NMR experiments were conducted on a Bruker AVANCE-600 instrument with tetramethylsilane (TMS) as an internal standard, operating at 600 MHz for ^1H NMR and 150 MHz for ^13C NMR (Ettlingen, Germany). Enzyme inhibition activity was measured using an Agilent Synergy H1 microplate reader (Agilent Technologies, Santa Clara, CA, USA). Macroporous resin AB-8 was obtained from the Chemical Plant of Nankai University (Tianjin, China). […] Analytical-grade reagents were procured from Da Mao Chemical Reagent Co., Ltd. (Tianjin, China), chromatographic-grade reagents from Honeywell Trade (Shanghai) Co., Ltd. (Shanghai, China), and distilled water from Watsons (Hong Kong, China).
Test sample solutions at various concentrations (5.00, 10.00, 20.00, 40.00, 60.00, 80.00, and 100.00 μM) were preincubated with α-amylase (2 U/mL) at 37 °C for 10 min. The reaction was terminated by adding 200 μL of DNS reagent and boiling the mixture at 100 °C for 5 min to inactivate the enzyme. After cooling to room temperature, 1 mL of distilled water was added for dilution, and absorbance was measured at 540 nm.

[2] = molecular target: T2, α-Glucosidase (from yeast, EC 3.2.1.20) (Saccharomyces cerevisiae, UniProt P53341); assay: biochemical; type: biochemical; conditions: for IC50: means ± SD, n = 3, yeast enzyme, p-NPG substrate, 37 °C; for α-glucosidase inhibitory activity (in words): tested up to 100.00 μM
T2 construct: purchased Shanghai Yuanye Bio-Technology Co., Ltd. (Shanghai, China)
T2 sequence (P53341 whole entry): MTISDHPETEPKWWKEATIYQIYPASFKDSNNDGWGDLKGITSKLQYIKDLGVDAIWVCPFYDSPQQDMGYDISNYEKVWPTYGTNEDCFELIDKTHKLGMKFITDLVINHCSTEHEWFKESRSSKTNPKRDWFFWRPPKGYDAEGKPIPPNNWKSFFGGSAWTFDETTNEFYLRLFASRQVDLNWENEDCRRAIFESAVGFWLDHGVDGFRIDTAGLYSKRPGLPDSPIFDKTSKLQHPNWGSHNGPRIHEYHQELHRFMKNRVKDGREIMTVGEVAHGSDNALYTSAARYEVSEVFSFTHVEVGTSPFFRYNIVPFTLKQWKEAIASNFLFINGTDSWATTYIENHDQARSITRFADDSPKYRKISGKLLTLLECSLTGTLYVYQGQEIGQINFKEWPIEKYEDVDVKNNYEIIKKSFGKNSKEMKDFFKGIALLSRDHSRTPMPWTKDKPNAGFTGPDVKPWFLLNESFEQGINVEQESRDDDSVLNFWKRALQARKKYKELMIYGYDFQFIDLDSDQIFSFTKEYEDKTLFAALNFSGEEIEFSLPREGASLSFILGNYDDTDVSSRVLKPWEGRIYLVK
Experimental: as §1
Then, 400 μL of p-NPG solution (5 mM) was added to initiate the enzymatic reaction, which continued to incubate at 37 °C for 20 min. The reaction was terminated by placing the mixture in a −20 °C freezer for 10 min. Absorbance was measured at 405 nm using a microplate reader.

SMILES | IC50 ([1]; read-out: IC50 α-Amylase) [µM] | α-amylase inhibitory activity (in words) [1] | IC50 ([2]; read-out: IC50 α-Glucosidase) [µM] | α-glucosidase inhibitory activity (in words) [2] | IC50 ([2]; IC50 α-Glucosidase) [µM] | IC50 ([1]; IC50 α-Amylase) [µM]
COc1ccc(C2=CC(=O)OC2Cc2ccc(O)cc2)c(OC2OC(CO)C(O)C(O)C2O)c1 (single isomer, unassigned; (-)) [Compound 3, (−)-puerol B-2-O-glucopyranoside] | 83.6 ± 1.15 | significant inhibitory activity | 72.9 ± 0.79 | significant inhibitory activity | – | –
COc1ccc(C2=CC(=O)OC2Cc2ccc(OC3OC(CO)C(O)C(O)C3O)cc2)c(OC2OC(CO)C(O)C(O)C2O)c1 (stereo not drawn) [Compound 1, 4R-pueroside B] | 81.7 ± 1.72 | significant inhibitory activity | 61.3 ± 1.15 | significant inhibitory activity | – | –
COc1ccc(C2=CC(=O)OC2Cc2ccc(OC3OC(CO)C(O)C(O)C3O)cc2)c(OC2OC(CO)C(O)C(O)C2O)c1 (stereo not drawn) [Compound 2, 4S-pueroside B] | > 100 | did not show any activity | > 100 | did not show any activity | – | –
COc1cc2c(cc1OC)[C@@H](Cc1ccc(Oc3cc(C[C@@H]4c5cc(OC)c(OC)cc5CCN4C)ccc3O)cc1)N(C)CC2 [Compound 4, dauricine] | 60.9 ± 1.68 | – | – | – | 44.2 ± 1.03 | –
COc1cc2c(cc1O)[C@@H](Cc1ccc(O)c(Oc3ccc(C[C@@H]4c5cc(OC)c(OC)cc5CCN4C)cc3)c1)N(C)CC2 [Compound 5, daurisoline] | 66.4 ± 2.31 | – | – | – | 45.2 ± 1.27 | –
COc1ccc2c(c[n+](C)c3c4cc5c(cc4ccc23)OCO5)c1OC [Compound 6, chelerythrine] | 71.4 ± 1.24 | – | 52.3 ± 1.59 | – | – | –
COc1cc2c(cc1O)[C@@H]1Cc3ccc(O)c(OC)c3CN1CC2 [Compound 7, stepholidine] | 78.2 ± 1.98 | – | 58.8 ± 1.55 | – | – | –
COC1=CC(=O)[C@@]2([C@@H]1O)[C@@H](Cl)C[C@@]13C(OC)=C(OC)C(=O)C[C@@]21CCN3C [Compound 8, acutumine] | 80.7 ± 1.85 | – | 66.5 ± 2.03 | – | – | –
COC1=C[C@@H]2[C@@H]3Cc4ccc(OC)c(O)c4[C@]2(CCN3C)CC1=O [Compound 9, sinomenine] | – | – | – | – | 57.6 ± 0.88 | 66.7 ± 1.45
COc1cc(O)ccc1C(O)C(=O)Cc1ccc(O)cc1 (stereo not drawn) [Compound 10] | 63.6 ± 1.37 | – | 43.6 ± 0.76 | – | – | –
CC1(C)C=Cc2cc3c(cc2O1)OC1C2(O)C=CC(=O)C=C2OCC31O (stereo not drawn) [Compound 11, hydroxytuberosone] | 38.9 ± 1.08 | – | 32.2 ± 0.71 | – | – | –
CC1(C)CC(=O)C2(C)CCC3(C)C(=CCC4C5(C)CCC(=O)C(C)(CO)C5CCC43C)C2C1 (stereo not drawn) [Compound 12, melilotigenin B] | 30.9 ± 0.57 | – | 23.3 ± 0.38 | – | – | –
